Experimental data from patent US9353104B2, “Substituted pyridizinone derivatives as PDE10 inhibitors” (priority 2013, dated 2016).

biological target: human PDE10A2 (Homo sapiens (Human), UniProt Q9Y233); assay: PDE10 fluorescence polarization (IMAP FP) inhibition assay; assay type: biochemical; conditions: human PDE10A2 lysate, FAM-labeled cAMP 50 nM, room temperature; read-out: PDE10A Ki
Procedure: The activity of the compounds in accordance with the present invention as PDE10 inhibitors may be readily determined without undue experimentation using a fluorescence polarization (FP) methodology that is well known in the art (Huang, W., et al., J. Biomol Screen, 2002, 7: 215). […] In a typical experiment the PDE10 inhibitory activity of the compounds of the present invention was determined in accordance with the following experimental method. PDE10A2 was amplified from human fetal brain cDNA (Clontech, Mountain View, Calif.) using a forward primer corresponding to nucleotides 56-77 of human PDE10A2 (Accession No. AF127480, Genbank Identifier 4894716), containing a Kozak consensus sequence, and a reverse primer corresponding to nucleotides 2406-2413 of human PDE10A2 (Accession No. AF127480, Genbank Identifier 4894716). Amplification with Easy-A polymerase (Stratagene, La Jolla, Calif.) was 95° C. for 2 minutes followed by thirty three cycles of 95° C. for 40 seconds, 55° C. for 30 seconds, and 72° C. for 2 minutes 48 seconds. Final extension was 72° C. for 7 minutes. The PCR product was TA cloned into pcDNA3.2-TOPO (Invitrogen, Carlsbad, Calif.) according to standard protocol. AD293 cells with 70-80% confluency were transiently transfected with human PDE10A2/pcDNA3.2-TOPO using Lipofectamine 2000 according to manufacturer specifications (Invitrogen, Carlsbad, Calif.). Cells were harvested 48 hours post-transfection and lysed by sonication (setting 3, 10×5 sec pulses) in a buffer containing 20 mM HEPES, 1 mM EDTA and protease inhibitor cocktail (Roche). Lysate was collected by centrifugation at 75,000×g for 20 minutes. Supernatant containing the cytoplasmic fraction was used for evaluation of PDE10A2 activity. The fluorescence polarization assay for cyclic nucleotide phosphodiesterases was performed using an IMAP® FP kit supplied by Molecular Devices, Sunnyvale, Calif. (product #R8139). IMAP® technology has been applied previously to phosphodiesterase assays (Huang, W., et al., J. Biomol Screen, 2002, 7: 215). Assays were performed at room temperature in 384-well microtiter plates with an incubation volume of 20.2 μL. Solutions of test compounds were prepared in DMSO and serially diluted with DMSO to yield 8 μL of each of 10 solutions differing by 3-fold in concentration, at 32 serial dilutions per plate. 100% inhibition is determined using a known PDE10 inhibitor, which can be any compound that is present at 5,000 times its Ki value in the assay described as follows, such as papaverine (see Siuciak, et al. Neuropharmacology (2006) 51:386-396; Becker, et al. Behav Brain Res (2008) 186(2):155-60; Threlfell, et al., J Pharmacol Exp Ther (2009) 328(3):785-795), 2-{4-[pyridin-4-yl-1-(2,2,2-trifluoroethyl)-1H-pyrazol-3-yl]phenoxymethyl}quinoline succinic acid or 2-[4-(1-methyl-4-pyridin-4-yl-1H-pyrazol-3-yl)-phenoxymethyl]quinoline succinic acid (see Schmidt, et al. J Pharmacol Exp Ther (2008) 325:681-690; Threlfell, et al., J Pharmacol Exp Ther (2009) 328(3): 785-795). 0% of inhibition is determined by using DMSO (1% final concentrations).
A Labcyte Echo 555 (Labcyte, Sunnyvale, Calif.) is used to dispense 200 nL from each well of the titration plate to the 384 well assay plate. A solution of enzyme (1/1600 dilution from aliquots; sufficient to produce 20% substrate conversion) and a separate solution of FAM-labeled cAMP PDE from Molecular Devices (product #R7506), at a final concentration of 50 nM are made in the assay buffer (10 mM Tris HCl, pH 7.2, 10 mM MgCl2, 0.05% NaN3 0.01% Tween-20, and 1 mM DTT). The enzyme and the substrate are then added to the assay plates in two consecutive additions of 10 μL, and then shaken to mix. The reaction is allowed to proceed at room temperature for 30 minutes. A binding solution is then made from the kit components, comprised of 80% Solution A, 20% Solution B and binding reagent at a volume of 1/600 the total binding solution.

Chain of human PDE10A2 (Q9Y233 267-1055): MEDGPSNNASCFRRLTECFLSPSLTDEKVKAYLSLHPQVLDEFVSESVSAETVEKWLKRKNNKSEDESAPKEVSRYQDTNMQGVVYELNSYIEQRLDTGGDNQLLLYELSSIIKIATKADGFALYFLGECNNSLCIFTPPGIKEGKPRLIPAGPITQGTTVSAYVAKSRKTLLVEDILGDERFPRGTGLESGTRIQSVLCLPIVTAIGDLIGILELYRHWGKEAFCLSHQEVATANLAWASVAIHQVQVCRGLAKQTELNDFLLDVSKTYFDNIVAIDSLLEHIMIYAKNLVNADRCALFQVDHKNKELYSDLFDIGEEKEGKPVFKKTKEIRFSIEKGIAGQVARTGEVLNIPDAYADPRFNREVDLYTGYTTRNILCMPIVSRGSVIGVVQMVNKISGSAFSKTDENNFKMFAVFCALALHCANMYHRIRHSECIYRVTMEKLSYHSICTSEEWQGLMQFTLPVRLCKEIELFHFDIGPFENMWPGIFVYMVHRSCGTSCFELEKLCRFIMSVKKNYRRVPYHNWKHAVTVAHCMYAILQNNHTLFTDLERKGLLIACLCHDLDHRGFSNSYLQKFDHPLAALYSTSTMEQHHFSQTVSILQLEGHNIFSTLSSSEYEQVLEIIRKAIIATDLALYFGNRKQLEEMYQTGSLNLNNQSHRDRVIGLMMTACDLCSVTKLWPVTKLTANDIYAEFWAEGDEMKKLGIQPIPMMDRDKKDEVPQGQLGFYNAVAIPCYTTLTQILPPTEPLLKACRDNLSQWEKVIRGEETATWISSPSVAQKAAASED

| Ki | Compound |
| --- | --- |
| 0.097 nM | Cc1cnc(CNc2cc(OC[C@H]3C[C@@H]3c3ccn(C)n3)nn(C)c2=O)s1 [Example 26, 2-methyl-6-(((1S,2S)-2-(1-methyl-1H-pyrazol-3-yl)cyclopropyl)methoxy)-4-((5-methylthiazol-2-yl)methylamino)pyridazin-3(2H)-one] |
| 0.34 nM | Cn1cc(CNc2cc(OC[C@H]3C[C@@H]3c3ccc(Cl)cn3)nn(C)c2=O)cn1 [Example 27, 6-(((1S,2S)-2-(5-chloro-pyridin-2-yl)cyclopropyl)-methoxy)-2-methyl-4-((1-methyl-1H-pyrazol-4-yl)methylamino)pyridazin-3(2H)-one] |
| 0.046 nM | Cc1cc(CNc2cc(OC[C@H]3C[C@@H]3c3ccc(OC(F)F)cn3)nn(C)c2=O)n(C)n1 [Example 28, 6-(((1S,2S)-2-(5-(difluoro-methoxy)pyridin-2-yl)-cyclopropyl)-methoxy)-4-((1,3-dimethyl-1H-pyrazol-5-yl)methyl-amino)-2-methylpyridazin-3(2H)one] |
| 0.109 nM | Cc1ncc(CNc2cc(OC[C@H]3C[C@@H]3c3ccc(OC(F)F)cn3)nn(C)c2=O)s1 [Example 29, 6-(((1S,2S)-2-(5-(difluoromethoxy)pyridin-2-yl)cyclopropyl)-methoxy)-2-methyl-4-((2-methylthiazol-5-yl)methyl-amino)pyridazin-3(2H)one] |
| 0.552 nM | Cn1cc(CNc2cc(OC[C@H]3C[C@@H]3c3ccc(OC(F)F)cn3)nn(C)c2=O)cn1 [Example 30, 6-(((1S,2S)-2-(5-(difluoromethoxy)pyridin-2-yl)cyclopropyl)methoxy)-2-methyl-4-((1-methyl-1H-pyrazol-4-yl)methylamino)pyridazin-3(2H)-one] |
| 0.007 nM | Cc1ccc([C@H]2C[C@@H]2COc2cc(NCc3ncc(C)s3)c(=O)n(C)n2)nc1 [Example 31, 2-methyl-6-(((1S,2S)-2-(5-methylpyridin-2-yl)cyclopropyl)methoxy)-4-((5-methylthiazol-2-yl)methylamino)pyridazin-3(2H)-one] |
| 0.176 nM | Cc1cnc(CNc2cc(OC[C@H]3C[C@@H]3c3ccc(F)cn3)nn(C)c2=O)s1 [Example 32, 6-(((1S,2S)-2-(5-fluoropyridin-2-yl)cyclopropyl)methoxy)-2-methyl-4-((5-methylthiazol-2-yl)methylamino)pyridazin-3(2H)-one] |
| 0.02 nM | Cc1cc(CNc2cc(OC[C@H]3C[C@@H]3c3ccc(Cl)cn3)nn(C)c2=O)n(C)n1 [Example 33, 6-(((1S,2S)-2-(5-chloropyridin-2-yl)cyclopropyl)methoxy)-4-((1,3-dimethyl-1H-pyrazol-5-yl)methylamino)-2-methylpyridazin-3(2H)-one] |
| 0.064 nM | Cc1ncc(CNc2cc(OC[C@H]3C[C@@H]3c3ccc(Cl)cn3)nn(C)c2=O)s1 [Example 34, 6-(((1S,2S)-2-(5-chloropyridin-2-yl)cyclopropyl)methoxy)-2-methyl-4-((2-methylthiazol-5-yl)methylamino)pyridazin-3(2H)-one] |
| 0.476 nM | Cc1ccc([C@H]2C[C@@H]2COc2cc(NCc3c(Cl)c(C)nn3C)c(=O)n(C)n2)nc1 [Example 35, 4-((4-chloro-1,3-dimethyl-1H-pyrazol-5-yl)methylamino)-2-methyl-6-(((1S,2S)-2-(5-methylpyridin-2-yl)cyclopropyl)methoxy)-pyridazin-3(2H)-one] |
| 0.911 nM | Cc1nnc(CN(C)c2cc(OC[C@H]3C[C@@H]3c3ccc4ccccc4n3)nn(C)c2=O)s1 [Example 36, 2-methyl-4-(methyl((5-methyl-1,3,4-thiadiazol-2-yl)methyl)amino)-6-(((1S,2S)-2-(quinolin-2-yl)cyclopropyl)methoxy)-pyridazin-3(2H)-one] |
| 0.009 nM | COc1ccc([C@H]2C[C@@H]2COc2cc(NCc3cn(C)nc3C)c(=O)n(C)n2)nc1 [Example 37, 4-((1,3-dimethyl-1H-pyrazol-4-yl)methyl-amino)-6-(((1S,2S)-2-(5-methoxypyridin-2-yl)cyclopropyl)methoxy)-2-methylpyridazin-3(2H)-one] |
| 1.53 nM | Cc1ccc([C@H]2C[C@@H]2COc2cc(NCc3c(C)nn(C)c3Cl)c(=O)n(C)n2)nc1 [Example 38, 4-((5-chloro-1,3-dimethyl-1H-pyrazol-4-yl)methyl-amino)-2-methyl-6-(((1S,- 2S)-2-(5-methyl-pyridin-2-yl)cyclopropyl)methoxy)-pyridazin-3(2H)-one] |
| 1.58 nM | COc1ccc([C@H]2C[C@@H]2COc2cc(NCc3c(C)nn(C)c3Cl)c(=O)n(C)n2)nc1 [Example 39, 4-((5-chloro-1,3-dimethyl-1H-pyrazol-4-yl)methylamino)-6-(((1S,2S)-2-(5-methoxypyridin-2-yl)cyclopropyl)methoxy)-2-methylpyridazin-3(2H)-one] |
| 11.8 nM | Cc1nn(C)c(Cl)c1CNc1cc(OC[C@H]2C[C@@H]2c2ccn(C)n2)nn(C)c1=O [Example 40] |
| 8.21 nM | Cn1ccc([C@H]2C[C@@H]2COc2cc(NCc3nccs3)c(=O)n(C)n2)n1 [Example 47, 2-methyl-6-(((1S,2S)-2-(1-methyl-1H-pyrazol-3-yl)cyclopropyl)methoxy)-4-((thiazol-2-ylmethyl)amino)pyridazin-3(2H)-one] |
| > 100 nM | Cc1nc(CNc2cc(OC[C@H]3C[C@@H]3c3ccn(C)n3)nn(C)c2=O)cs1 [Example 48] |
| 0.003 nM | COc1ccc([C@H]2C[C@@H]2COc2cc(NCc3ccc(C)nc3C)c(=O)n(C)n2)nc1 [Example 50, 4-(((2,6-dimethylpyridin-3-yl)methyl)amino)-6-(((1S,2S)-2-(5-methoxypyridin-2-yl)cyclopropyl)methoxy)-2-methylpyridazin-3(2H)-one] |
| 0.023 nM | Cc1ccc(CNc2cc(OC[C@H]3C[C@@H]3c3ccn(C)n3)nn(C)c2=O)c(C)n1 [Example 51, 4-(((2,6-dimethylpyridin-3-yl)methyl)amino)-2-methyl-6-(((1S,2S)-2-(1-methyl-1H-pyrazol-3-yl)cyclopropyl)methoxy)-pyridazin-3(2H)-one] |
| 0.007 nM | Cc1ccc([C@H]2C[C@@H]2COc2cc(NCc3ccc(C)nc3C)c(=O)n(C)n2)nc1 [Example 52, 4-(((2,6-dimethylpyridin-3-yl)methyl)amino)-2-methyl-6-(((1S,2S)-2-(5-methylpyridin-2-yl)cyclopropyl)methoxy)-pyridazin-3(2H)-one] |
| 0.034 nM | Cc1ccc(CNc2cc(OC[C@H]3C[C@@H]3c3ccc(F)cn3)nn(C)c2=O)c(C)n1 [Example 53, 4-(((2,6-dimethylpyridin-3-yl)methyl)amino)-6-(((1S,2S)-2-(5-fluoro-pyridin-2-yl)cyclopropyl-)-methoxy)-2-methyl-pyridazin-3(2H)-one] |
| 0.019 nM | Cc1ccc(CNc2cc(OC[C@H]3C[C@@H]3c3ccc(Cl)cn3)nn(C)c2=O)c(C)n1 [Example 54] |
| 0.021 nM | Cc1ccc(CNc2cc(OC[C@H]3C[C@@H]3c3ccccn3)nn(C)c2=O)c(C)n1 [Example 55, 4-(((2,6-dimethylpyridin-3-yl)methyl)amino)-2-methyl-6-(((1S,2S)-2-(pyridin-2-yl)cyclopropyl-)-methoxy)pyridazin-3(2H)-one] |
| 0.002 nM | Cc1ccc(CNc2cc(OC[C@H]3C[C@@H]3c3ccc4c(n3)CCC4)nn(C)c2=O)c(C)n1 [Example 56, 6-(((1S,2S)-2-(6,7-dihydro-5H-cyclopenta-[b]pyridin-2-yl)cyclo-propyl)methoxy)-4-(((2,6-dimethylpyridin-3-yl)-methyl)amino)-2-methyl-pyridazin-3(2H)-one] |
